± gives the expanded uncertainty stated by the source.
What was measured:
[1] = xn = mol fraction of the nth substance listed; conditions: 308.15 K, 101.33 kPa, Liquid
[2] = molar heat capacity at constant pressure; xn = mol fraction of the nth substance listed; conditions: Liquid
[3] = refractive index (Na D-line) (dimensionless); xn = mol fraction of the nth substance listed; conditions: 308.15 K, 101.33 kPa, Liquid, Standard Abbe refractometry
[4] = excess molar enthalpy (molar enthalpy of mixing); xn = mol fraction of the nth substance listed; conditions: 308.15 K, 101.33 kPa, Liquid

OCCCc1ccccc1 [3-phenyl-1-propanol] + C[S+](C)[O-]
Conditions | excess molar enthalpy [kcal/mol] | mass density [kg/m3] | refractive index | viscosity [mPa·s]
[1], x2 = 0.0936 | – | 996.28 ± 0.49 | – | 8.592 ± 0.14
[1], x2 = 0.1499 | – | 999.45 ± 0.47 | – | 7.792 ± 0.12
[1], x2 = 0.277 | – | 1007.07 ± 0.42 | – | 6.19 ± 0.097
[1], x2 = 0.3915 | – | 1014.73 ± 0.39 | – | 5.032 ± 0.079
[1], x2 = 0.4564 | – | 1019.55 ± 0.37 | – | 4.488 ± 0.07
[1], x2 = 0.578 | – | 1029.68 ± 0.34 | – | 3.629 ± 0.056
[1], x2 = 0.6526 | – | 1036.85 ± 0.32 | – | 3.18 ± 0.048
[1], x2 = 0.7233 | – | 1044.45 ± 0.32 | – | 2.801 ± 0.042
[1], x2 = 0.7879 | – | 1052.21 ± 0.31 | – | 2.487 ± 0.038
[1], x2 = 0.8512 | – | 1060.69 ± 0.31 | – | 2.208 ± 0.033
[1], x2 = 0.9027 | – | 1068.4 ± 0.32 | – | 1.993 ± 0.03
[1], x2 = 0.9543 | – | 1076.93 ± 0.33 | – | 1.801 ± 0.027
[3], x2 = 0.0936 | – | – | 1.5188 ± 0.0007 | –
[3], x2 = 0.1499 | – | – | 1.5172 ± 0.0007 | –
[3], x2 = 0.277 | – | – | 1.5132 ± 0.0007 | –
[3], x2 = 0.3915 | – | – | 1.509 ± 0.0007 | –
[3], x2 = 0.4564 | – | – | 1.5063 ± 0.0007 | –
[3], x2 = 0.578 | – | – | 1.5008 ± 0.0007 | –
[3], x2 = 0.6526 | – | – | 1.4969 ± 0.0007 | –
[3], x2 = 0.7233 | – | – | 1.4931 ± 0.0007 | –
[3], x2 = 0.7879 | – | – | 1.489 ± 0.0007 | –
[3], x2 = 0.8512 | – | – | 1.4847 ± 0.0007 | –
[3], x2 = 0.9027 | – | – | 1.4811 ± 0.0007 | –
[3], x2 = 0.9543 | – | – | 1.4771 ± 0.0007 | –
[4], x2 = 0.0737 | -0.0543 ± 0.0012 | – | – | –
[4], x2 = 0.1373 | -0.0822 ± 0.00167 | – | – | –
[4], x2 = 0.1927 | -0.0951 ± 0.00191 | – | – | –
[4], x2 = 0.2414 | -0.103 ± 0.00215 | – | – | –
[4], x2 = 0.3232 | -0.101 ± 0.00215 | – | – | –
[4], x2 = 0.389 | -0.0946 ± 0.00191 | – | – | –
[4], x2 = 0.4885 | -0.0796 ± 0.00167 | – | – | –
[4], x2 = 0.56 | -0.0645 ± 0.00143 | – | – | –
[4], x2 = 0.6563 | -0.0423 ± 0.000956 | – | – | –
[4], x2 = 0.7413 | -0.0215 ± 0.000717 | – | – | –
[4], x2 = 0.7925 | -0.0115 ± 0.000478 | – | – | –
[4], x2 = 0.8514 | -0.00311 ± 0.000478 | – | – | –
[4], x2 = 0.8843 | 0.00167 ± 0.000478 | – | – | –
[4], x2 = 0.9162 | 0.00335 ± 0.000478 | – | – | –
[4], x2 = 0.9386 | 0.0043 ± 0.000478 | – | – | –
[4], x2 = 0.9582 | 0.00406 ± 0.000478 | – | – | –
[4], x2 = 0.9787 | 0.00263 ± 0.000478 | – | – | –

molar heat capacity at constant pressure [J/K/mol], [2], 101 kPa
Conditions | 298.15 K | 308.15 K | 318.15 K
x2 = 0 | 276.3 ± 22 | 284.1 ± 23 | 291.8 ± 23
x2 = 0.0905 | 259.9 ± 21 | 265.7 ± 21 | 273 ± 22
x2 = 0.1204 | 250.3 ± 20 | 256 ± 20 | 262.8 ± 21
x2 = 0.1712 | 243.4 ± 20 | 249.7 ± 20 | 256.2 ± 20
x2 = 0.3375 | 211.1 ± 17 | 215.5 ± 17 | 220 ± 18
x2 = 0.452 | 196.9 ± 16 | 200 ± 16 | 203.5 ± 16
x2 = 0.5571 | 185.1 ± 15 | 187.5 ± 15 | 190.7 ± 15
x2 = 0.6101 | 185.8 ± 15 | 188.7 ± 15 | 191.4 ± 15
x2 = 0.6567 | 177 ± 14 | 178.3 ± 14 | 180.9 ± 14
x2 = 0.7396 | 165.6 ± 13 | 167.2 ± 13 | 170 ± 14
x2 = 0.806 | 162.2 ± 13 | 163.9 ± 13 | 165.4 ± 13
x2 = 0.8718 | 159.2 ± 13 | 160.5 ± 13 | 161.9 ± 13
x2 = 0.9487 | 148.5 ± 12 | 149.3 ± 12 | 151.3 ± 12

OCc1ccccc1 [benzenemethanol] + C[S+](C)[O-]
Conditions | excess molar enthalpy [kcal/mol] | mass density [kg/m3] | refractive index | viscosity [mPa·s]
[1], x2 = 0.0641 | – | 1037.17 ± 0.26 | – | 3.957 ± 0.06
[1], x2 = 0.1255 | – | 1040.32 ± 0.27 | – | 3.787 ± 0.057
[1], x2 = 0.2283 | – | 1045.4 ± 0.27 | – | 3.49 ± 0.053
[1], x2 = 0.3275 | – | 1050.05 ± 0.28 | – | 3.201 ± 0.048
[1], x2 = 0.4152 | – | 1054.07 ± 0.29 | – | 2.949 ± 0.044
[1], x2 = 0.5117 | – | 1058.52 ± 0.3 | – | 2.686 ± 0.04
[1], x2 = 0.5942 | – | 1062.41 ± 0.3 | – | 2.477 ± 0.037
[1], x2 = 0.6646 | – | 1065.87 ± 0.31 | – | 2.306 ± 0.035
[1], x2 = 0.7406 | – | 1069.8 ± 0.31 | – | 2.134 ± 0.032
[1], x2 = 0.8125 | – | 1073.74 ± 0.32 | – | 1.988 ± 0.03
[1], x2 = 0.8745 | – | 1077.57 ± 0.33 | – | 1.858 ± 0.028
[1], x2 = 0.9388 | – | 1081.3 ± 0.33 | – | 1.748 ± 0.026
[3], x2 = 0.0641 | – | – | 1.5328 ± 0.0007 | –
[3], x2 = 0.1255 | – | – | 1.5297 ± 0.0007 | –
[3], x2 = 0.2283 | – | – | 1.5252 ± 0.0007 | –
[3], x2 = 0.3275 | – | – | 1.5204 ± 0.0007 | –
[3], x2 = 0.4152 | – | – | 1.5157 ± 0.0007 | –
[3], x2 = 0.5117 | – | – | 1.5099 ± 0.0007 | –
[3], x2 = 0.5942 | – | – | 1.5048 ± 0.0007 | –
[3], x2 = 0.6646 | – | – | 1.4998 ± 0.0007 | –
[3], x2 = 0.7406 | – | – | 1.4946 ± 0.0007 | –
[3], x2 = 0.8125 | – | – | 1.4891 ± 0.0007 | –
[3], x2 = 0.8745 | – | – | 1.4838 ± 0.0007 | –
[3], x2 = 0.9388 | – | – | 1.4785 ± 0.0007 | –
[4], x2 = 0.0571 | -0.114 ± 0.00215 | – | – | –
[4], x2 = 0.108 | -0.194 ± 0.00359 | – | – | –
[4], x2 = 0.1537 | -0.249 ± 0.00454 | – | – | –
[4], x2 = 0.195 | -0.291 ± 0.00526 | – | – | –
[4], x2 = 0.2666 | -0.332 ± 0.00598 | – | – | –
[4], x2 = 0.3264 | -0.358 ± 0.00645 | – | – | –
[4], x2 = 0.4209 | -0.358 ± 0.00645 | – | – | –
[4], x2 = 0.492 | -0.34 ± 0.00621 | – | – | –
[4], x2 = 0.5924 | -0.304 ± 0.0055 | – | – | –
[4], x2 = 0.6856 | -0.247 ± 0.00454 | – | – | –
[4], x2 = 0.744 | -0.201 ± 0.00382 | – | – | –
[4], x2 = 0.8135 | -0.147 ± 0.00287 | – | – | –
[4], x2 = 0.8532 | -0.118 ± 0.00239 | – | – | –
[4], x2 = 0.8971 | -0.0825 ± 0.00167 | – | – | –
[4], x2 = 0.9208 | -0.0614 ± 0.00143 | – | – | –
[4], x2 = 0.9457 | -0.0392 ± 0.000956 | – | – | –
[4], x2 = 0.9721 | -0.021 ± 0.000717 | – | – | –

molar heat capacity at constant pressure [J/K/mol], [2], 101.33 kPa
Conditions | 298.15 K | 308.15 K | 318.15 K
x2 = 0 | 200.4 ± 16 | 203.9 ± 16 | 207.2 ± 17
x2 = 0.08706 | 196.4 ± 16 | 201.5 ± 16 | 206.4 ± 16
x2 = 0.1439 | 189.3 ± 15 | 193.7 ± 16 | 198.6 ± 16
x2 = 0.2708 | 168.3 ± 14 | 172.9 ± 14 | 177 ± 14
x2 = 0.3817 | 167 ± 13 | 170.3 ± 14 | 174.1 ± 14
x2 = 0.4964 | 162.3 ± 13 | 164.4 ± 13 | 166.7 ± 13
x2 = 0.5422 | 160.1 ± 13 | 162.4 ± 13 | 164.9 ± 13
x2 = 0.5966 | 159.3 ± 13 | 161.5 ± 13 | 163.6 ± 13
x2 = 0.6863 | 146.6 ± 12 | 149.1 ± 12 | 150.8 ± 12
x2 = 0.7711 | 146.9 ± 12 | 148.1 ± 12 | 149.8 ± 12
x2 = 0.8577 | 149.7 ± 12 | 151.2 ± 12 | 152.5 ± 12
x2 = 0.9237 | 149 ± 12 | 150.2 ± 12 | 151.4 ± 12
x2 = 0.9508 | 146.4 ± 12 | 147.6 ± 12 | 148.8 ± 12
